Measured values reported in US20230372337A1, “Combination Therapy Comprising an AXL Inhibitor” (BERGENBIO ASA, priority 2020, published 2023).
pIC50: −log10 of the molar value. Where two headings read alike, the source gives them in different places.

Columns and labels:
LL2 cells [1] = assay: Resazurin viability assay of LL2 cells (Example 4); assay type: cell-based, mouse
Experimental: (§1) 4T1 cells (ATCC, CRL-2539) were cultured in RPMI-1640 (Sigma, Cat. #R8758) supplemented with 10% fetal bovine serum (FBS), L-glutamine (4 mM), streptomycin (5 μg/ml) and penicillin (5 U/ml). […] Lewis lung carcinoma cells LL/2 (LLC1) (ATCC, CRL-1642™) were cultured in Dulbecco's Modified Eagle's Medium ATCC® 30-2002™ (4 mM L-glutamine, 4500 mg/L glucose, 1 mM sodium pyruvate, and 1500 mg/L sodium bicarbonate).
(§2) The IC50 of the different drugs were calculated by resazurin viability assay. […] The cells were treated for 48 hours.

LL2 cells [2] = assay: qRTPCR of IFN related genes in Lewis lung carcinoma (LL2) cells in vitro (Example 4); assay type: cell-based, mouse
Experimental: as §1
RNA was extracted from snap frozen tumors using the RNEasy Microarray Tissue Mini kit from Qiagen following the manufacturer's instructions. As tumors contained Doxorubicin and powderizing them could expose personnel to harmful substances, the RNA was extracted in a closed system using the GentleMACS dissociator and M Tubes. Purity and concentration of RNA was measured using Nanodrop. RT^2 Profiler™ PCR Array. cDNA was synthesized from RNA using the RT^2 First Strand kit (Qiagen) according to the manufacturer's instructions. cDNA was mixed with RT^2 SYBR Green Mastermix (Qiagen) and loaded into RT^2 Profiler™ PCR Array Mouse Type I Interferon Response or RT^2 Profiler™ PCR Array Mouse Epithelial to Mesenchymal Transition (EMT), analyzing the expression of the genes listed in Table 17. The plates were analyzed using Light Cycler 480 (Roche) and data were analyzed using the Qiagen Data Analysis Centre and Graph Pad (Prism).
Chemotherapeutic agents commonly used to treat lung cancer patients were evaluated for effects on the IFN response. Cisplatin, navelbine and docetaxel were tested in vitro in combination with bemcentinib.
as §2

4T1 cells = assay: qRTPCR of IFN related genes in 4T1 cells in vitro (Example 4); assay type: cell-based, mouse; settings: with or without bemcentinib
43 mouse cytokines = assay: Plasma cytokines, ProcartaPlex Multiplex Immunoassay (Luminex) (Example 2); assay type: in vivo, Balb/c mice; settings: DMXAA, 48 h post injection, treated groups
Experimental: The manufacturer user guide was followed. The samples were analyzed by (MAGPIX) and the results were obtained as concentration in pg/ml of mouse plasma. At least 3 samples per group, 4 for many, were analyzed.

[3] = tested on: type I IFN related genes (ISG); assay: RT2 Profiler PCR Array Mouse Type I Interferon Response on 4T1 tumors (Example 2); assay type: in vivo, Balb/c mice
From the text: Bemcentinib was given as a loading dose for 3 days (11-13 after tumor implantation) and then as a standard dose until sacrifice.
9 mice have been excluded of the study because of the absence of tumor on day 11. On day 11 post implantation half of the cages were placed in the bemcentinib treated group and the other half in the […]. The average tumor volume when bemcentinib treatment was initiated (day 11) was 54.99 mm^3. […] The tumor volumes when bemcentinib treatment was initiated and the day of randomization are recorded in table 8. The intra tumomoral injection of doxorubicin and sting agonists was adjusted to the tumor volume.
Doxorubicin is provided in a 2 mg/ml solution. As it is technically challenging to inject 50 ul liquid into tumors measuring <100 mm^3, the total dosing volume was calculated based on the following formula: V=50 ul×(TV/120). This is done to minimize variability due to leakage during intratumoral injection. For the 1 mg/kg dose (E,F) Doxorubicin was given at a concentration of 0.5 mg/ml, which corresponds to 1 mg/kg for a 25 g mouse with a tumor of 120 mm^3, and 1 mg/kg for a 20 g mouse with a tumor of 100 mm^3. For 3 mg/kg dose (G,H), a solution of 1.5 mg/ml was used and same volumes was injected. For the 6 mg/kg dose (I,J) the commercial solution of 2 mg/ml will be used and 75 ul was injected for tumor with a volume of 120 mm^3.
The same formula as for doxorubicin was used V=50 ul×(TV/120).
RNA was extracted from […] snap frozen tumors using the RNEasy Microarray Tissue Mini kit from Qiagen following the manufacturer's instructions. As tumors contained Doxorubicin and powderizing them could expose personnel to harmful substances, the RNA was extracted in a closed system using the GentleMACS dissociator and M Tubes. Purity and concentration of RNA was measured using Nanodrop. cDNA was synthesized from RNA using the RT^2 First Strand kit (Qiagen) according to the manufacturer's instructions. cDNA was mixed with RT^2 SYBR Green Mastermix (Qiagen) and loaded into RT Profiler™ PCR Array Mouse Type I Interferon Response or RT^2 Profiler™ PCR Array Mouse Epithelial to Mesenchymal Transition (EMT), analyzing the expression of 84 genes listed in Tables 9 and 10. The plates were analyzed using Light Cycler 480 (Roche) and data were analyzed using the Qiagen Data Analysis Centre and Graph Pad (Prism).
Quiagen RT^2 software was used to analyze all the samples from different groups. To be able to generate heatmaps and graph on fold change including error bars, the data have been analyzed manually with Graph Pad (Prism) when the Quiagen RT^2 software gave significant results between the different groups. For IFN type 1 response 1 mg/kg 48, 72 h and 3 mg/kg 48 h, were analyzed manually. For EMT, 1 mg/kg 48, 72 h, 3 mg/kg 72 h. When the data have been analyzed manually, the results are presented as histograms of mRNA fold changes. For the time points and doses analyzed by the software, the results are presented as tables.
GraphPadPrism was used to generate the heat maps, graphs with mRNA fold change, and to make the statistics. Multiple TTests, paired were performed on ΔΔ Ct values.
The expression of type I IFN related genes (ISG) was assessed in tumors collected 24, 48 and 72 hours after i.t. doxorubicin treatment. 3 groups were compared per timepoint: bemcentinib (bern), doxorubicin only (dox) and doxorubicin combined with bemcentinib (doxbern), the fold changes were compared with the control groups injected with PBS, and the fold change was 1 for the control groups.

[4] = tested on: 4T1 mammary carcinoma cells; assay: Tumor growth, 4T1 model (Example 2); parameters: species or system Balb/c mice; settings: short in vivo study, single i.t. injection day 15
Experimental: Tumor growth was measured with a digital handheld caliper twice weekly from emergence of tumor and until the day of euthanasia

Yumm1.7 cells = assay: qRTPCR of IFN related genes in Yumm1.7 cells in vitro (Example 4); assay type: cell-based, mouse; settings: Yumm1.7 cells; DMXAA treatment; 13 ISG tested
[5] = in the presence of bemcentinib, read-out: IC50 with bem
[6] = Mus musculus, LL/2, read-out: IC50 without bem

N.N.[Cl][Pt][Cl] [Cisplatin, cisplatin]
pIC50 (LL2 cells [1]; [5]): 5.33
pIC50 (LL2 cells [1]; read-out: IC50 without bem): 5.21
ISGs upregulated compared to control (number) (LL2 cells [2]; cisplatin 5 uM, 48 hours): 11

Cc1ccc2c(=O)c3cccc(CC(=O)O)c3oc2c1C [DMXAA, 5,6-Dimethylxanthenone-4-acetic Acid]
IC50 without bem (LL2 cells [1]): No effect
IC50 with bem (LL2 cells [1]; in the presence of bemcentinib): No effect
IFN response after DMXAA stimulation (4T1 cells): No significant changes
Cytokines with different concentration compared with controls (number) (43 mouse cytokines): 8
ISG significantly upregulated compared to control (number) ([3]; 24 hours after DMXAA i.t. treatment): 8
ISG upregulated (number) ([3]; 48 hours after DMXAA injection): 1
ISG upregulated compared to control (number) (LL2 cells [2]; DMXAA 25 ug/ml, 48 hours): 20
Tumor growth [4]: decreased tumor growth
ISG upregulated (number) (Yumm1.7 cells): 4

CC(=O)O[C@@]12CO[C@@H]1C[C@H](O)[C@@]1(C)C(=O)[C@H](O)C3=C(C)[C@@H](OC(=O)[C@H](O)[C@@H](NC(=O)OC(C)(C)C)c4ccccc4)C[C@@](O)([C@@H](OC(=O)c4ccccc4)[C@H]21)C3(C)C [Docetaxel, docetaxel]
pIC50 (LL2 cells [1]; [6]): 7.85
pIC50 (LL2 cells [1]; [5]): 8.14
ISG significantly upregulated compared to control (number) (LL2 cells [2]; docetaxel 5 nM): 2

CCC1=C[C@@H]2CN(C1)Cc1c([nH]c3ccccc13)[C@@](C(=O)OC)(c1cc3c(cc1OC)N(C)[C@H]1[C@@](O)(C(=O)OC)[C@H](OC(C)=O)[C@]4(CC)C=CCN5CC[C@]31[C@@H]54)C2 [Navelbine, vinorelbine]
pIC50 (LL2 cells [1]; [6]): 8.00
pIC50 (LL2 cells [1]; [5]): 9.12
ISG upregulated (number) (LL2 cells [2]; navelbine 1 nM, 48 hours): Four
